Experimental data from PubChem BioAssay AID1671289.

Target: Receptor tyrosine-protein kinase erbB-2 (Homo sapiens) (UniProt P04626)
Experiment: inhibition of HER2 tyrosine kinase activity – biochemical, Z'-LYTE FRET, direct format, recombinant human, dose response (AID 1671289)
Settings: recombinant ERBB2

Sequence of Receptor tyrosine-protein kinase erbB-2 (Homo sapiens) (P04626 whole entry, looked up): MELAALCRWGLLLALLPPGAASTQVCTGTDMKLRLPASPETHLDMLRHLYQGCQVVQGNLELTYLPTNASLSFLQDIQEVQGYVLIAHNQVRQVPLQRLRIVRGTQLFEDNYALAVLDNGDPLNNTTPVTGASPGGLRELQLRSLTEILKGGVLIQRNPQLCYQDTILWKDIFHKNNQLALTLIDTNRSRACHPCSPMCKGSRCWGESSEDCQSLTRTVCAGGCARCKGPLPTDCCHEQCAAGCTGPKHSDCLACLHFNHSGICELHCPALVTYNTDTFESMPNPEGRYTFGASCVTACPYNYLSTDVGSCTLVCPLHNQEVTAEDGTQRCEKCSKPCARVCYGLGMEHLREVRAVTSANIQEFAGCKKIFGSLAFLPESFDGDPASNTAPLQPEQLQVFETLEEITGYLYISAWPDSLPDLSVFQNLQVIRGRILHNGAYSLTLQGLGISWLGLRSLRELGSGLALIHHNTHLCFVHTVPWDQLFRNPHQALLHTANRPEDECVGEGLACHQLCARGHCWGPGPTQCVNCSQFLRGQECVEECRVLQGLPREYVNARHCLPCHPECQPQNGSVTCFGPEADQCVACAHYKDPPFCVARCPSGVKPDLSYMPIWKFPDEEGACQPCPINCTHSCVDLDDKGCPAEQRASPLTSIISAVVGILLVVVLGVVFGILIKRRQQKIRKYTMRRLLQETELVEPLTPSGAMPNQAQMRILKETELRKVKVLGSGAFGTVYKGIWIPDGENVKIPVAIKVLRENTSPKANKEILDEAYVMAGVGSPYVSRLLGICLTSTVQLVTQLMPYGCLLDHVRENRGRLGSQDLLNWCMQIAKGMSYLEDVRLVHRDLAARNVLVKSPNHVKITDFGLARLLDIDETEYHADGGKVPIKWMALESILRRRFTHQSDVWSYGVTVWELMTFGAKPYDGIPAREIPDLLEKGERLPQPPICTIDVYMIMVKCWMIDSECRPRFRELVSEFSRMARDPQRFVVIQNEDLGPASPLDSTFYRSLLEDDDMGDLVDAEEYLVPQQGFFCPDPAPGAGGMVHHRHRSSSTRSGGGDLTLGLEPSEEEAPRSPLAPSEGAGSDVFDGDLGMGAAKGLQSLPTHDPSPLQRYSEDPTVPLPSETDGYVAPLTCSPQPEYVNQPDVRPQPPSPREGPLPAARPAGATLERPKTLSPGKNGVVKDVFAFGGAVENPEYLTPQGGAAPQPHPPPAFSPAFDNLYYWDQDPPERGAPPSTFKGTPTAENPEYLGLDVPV

Structure (SMILES): COc1cc2ncnc(Nc3cccc(Cl)c3)c2cc1OC
- IC50: 0.0465 µM
